Experimental data published in patent publication US12509431B2, “1,4-dihydroquinazolinone compounds and uses thereof” (Edgewise Therapeutics, Inc., priority 2022, dated 2025).

Assays:
Format in all cases: biochemical
Conditions in all cases: Table 8
Porcine Atria myofibrils = assay: Myofibril ATPase assay (PK/LDH NADH-coupled), atria myofibrils
In short: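 Porcine atrial myofibril ATPase followed via PK/LDH-coupled NADH depletion, absorbance at 340 nm read every 1.5-2 min over 75 min. Slopes (mAU/min) normalized to vehicle as 100% and fit to a 4-parameter logistic; EC25% derived, plus EC50% for inhibitors.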

[1] = tested on: Rabbit Skeletal myofibrils (rabbit psoas muscle); assay: Myofibril ATPase assay (PK/LDH NADH-coupled), skeletal myofibrils
In short: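 Rabbit psoas myofibrils in pCa (PIPES/CaCl2/EGTA, pH 7.0) buffer; ADP coupled via PK/LDH to NADH loss, read at 340 nm every 1.5–2 min for 75 min. Slopes normalized to vehicle (100%) and fit to 4-parameter logistic for EC25, plus EC50 for inhibitors.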

[2] = target: T1, Porcine Ventricle myofibrils (left ventricle of Yucatan minipigs) (Sus scrofa, UniProt P79293); assay: Myofibril ATPase assay (PK/LDH NADH-coupled), ventricle myofibrils
T1 construct: Myofibrils from porcine cardiac muscle was isolated from the left ventricle of Yucatan minipigs; tissue Exemplar Genetics; host or cells: left ventricle of Yucatan minipigs
In short: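 Yucatan minipig left-ventricle myofibrils; ATPase measured by PK/LDH-coupled NADH loss at 340 nm, read every 1.5-2 min for 75 min. Slopes normalized to vehicle (100%) and fit to 4-parameter logistic model; EC25 and, for inhibitors, EC50 calculated.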

T1 sequence (P79293 whole entry): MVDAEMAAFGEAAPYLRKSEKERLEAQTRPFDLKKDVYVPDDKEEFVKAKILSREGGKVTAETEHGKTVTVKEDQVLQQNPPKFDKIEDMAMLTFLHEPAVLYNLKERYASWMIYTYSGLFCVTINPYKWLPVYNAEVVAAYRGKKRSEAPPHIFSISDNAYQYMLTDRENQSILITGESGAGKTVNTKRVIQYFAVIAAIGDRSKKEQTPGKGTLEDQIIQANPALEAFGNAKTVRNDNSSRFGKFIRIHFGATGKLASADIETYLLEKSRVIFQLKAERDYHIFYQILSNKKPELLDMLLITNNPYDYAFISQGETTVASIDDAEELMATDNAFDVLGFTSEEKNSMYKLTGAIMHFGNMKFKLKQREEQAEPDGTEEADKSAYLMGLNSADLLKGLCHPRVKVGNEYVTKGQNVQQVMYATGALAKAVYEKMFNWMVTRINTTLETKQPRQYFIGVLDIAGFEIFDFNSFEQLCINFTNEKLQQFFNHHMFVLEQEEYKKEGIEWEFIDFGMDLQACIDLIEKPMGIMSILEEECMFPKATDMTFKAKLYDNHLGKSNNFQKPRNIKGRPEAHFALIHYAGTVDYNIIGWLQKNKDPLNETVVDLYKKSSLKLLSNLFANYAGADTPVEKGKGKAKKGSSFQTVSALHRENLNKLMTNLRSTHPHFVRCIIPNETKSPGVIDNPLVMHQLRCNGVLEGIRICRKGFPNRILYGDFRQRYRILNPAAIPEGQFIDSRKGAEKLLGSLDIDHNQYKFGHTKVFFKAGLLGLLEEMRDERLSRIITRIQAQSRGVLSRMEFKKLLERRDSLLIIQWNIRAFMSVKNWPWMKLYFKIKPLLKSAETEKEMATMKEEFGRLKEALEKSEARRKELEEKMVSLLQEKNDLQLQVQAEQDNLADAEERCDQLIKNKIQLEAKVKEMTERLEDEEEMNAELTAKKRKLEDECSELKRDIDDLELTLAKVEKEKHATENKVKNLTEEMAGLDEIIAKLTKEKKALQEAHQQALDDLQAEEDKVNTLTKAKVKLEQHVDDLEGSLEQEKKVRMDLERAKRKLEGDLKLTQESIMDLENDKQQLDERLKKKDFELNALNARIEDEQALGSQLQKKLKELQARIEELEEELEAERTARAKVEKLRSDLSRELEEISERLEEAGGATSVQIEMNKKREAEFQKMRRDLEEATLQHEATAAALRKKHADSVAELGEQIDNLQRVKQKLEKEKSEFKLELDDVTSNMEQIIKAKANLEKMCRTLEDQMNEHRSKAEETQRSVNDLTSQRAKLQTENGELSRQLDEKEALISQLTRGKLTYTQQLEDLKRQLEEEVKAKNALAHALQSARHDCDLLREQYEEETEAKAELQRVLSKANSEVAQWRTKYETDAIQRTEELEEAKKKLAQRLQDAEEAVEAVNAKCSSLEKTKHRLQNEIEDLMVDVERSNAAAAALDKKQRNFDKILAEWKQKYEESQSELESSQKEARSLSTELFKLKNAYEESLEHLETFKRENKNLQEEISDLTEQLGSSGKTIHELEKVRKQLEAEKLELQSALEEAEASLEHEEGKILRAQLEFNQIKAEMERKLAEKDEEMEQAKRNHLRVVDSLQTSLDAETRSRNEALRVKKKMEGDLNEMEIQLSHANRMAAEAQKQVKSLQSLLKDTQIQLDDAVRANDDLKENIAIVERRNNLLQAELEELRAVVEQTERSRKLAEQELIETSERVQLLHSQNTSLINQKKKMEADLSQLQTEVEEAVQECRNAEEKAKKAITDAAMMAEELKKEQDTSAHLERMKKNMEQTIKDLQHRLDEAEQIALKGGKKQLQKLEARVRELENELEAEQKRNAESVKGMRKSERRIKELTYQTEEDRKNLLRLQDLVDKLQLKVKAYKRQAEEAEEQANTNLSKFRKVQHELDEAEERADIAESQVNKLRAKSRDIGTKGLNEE

SMILES | Porcine Atria IC25 (Porcine Atria myofibrils) | Rabbit Psoas IC25 [1] | Porcine Ventricle IC25 [2]
C[C@@H](NC(=O)[C@H](C)N1Cc2cc(F)ccc2NC1=O)c1ccc(F)cc1F [Compound B239] | 100.00 µM | 7.191 µM | 100 µM
C[C@H](C(=O)N[C@H](C)c1ccc(F)cc1F)N1Cc2cc(F)ccc2NC1=O [Compound B240] | 25.37 µM | 0.8825 µM | 100 µM
C[C@H](NC(=O)[C@@H](C)N1Cc2cc(F)ccc2NC1=O)c1ccc(F)cc1F [Compound B241] | 0.11 µM | 0.034 µM | 1.243 µM
C[C@H](NC(=O)[C@H](C)N1Cc2cc(F)ccc2NC1=O)c1ccc(F)cc1F [Compound B242] | 58.71 µM | 0.3555 µM | 100 µM
CC(C(=O)N[C@@H](C)c1ccc(F)cc1F)N1Cc2ccccc2NC1=O (stereo partly drawn) [Compound B243] | 0.19 µM | 10.96 µM | 11.52 µM
CC1c2ccccc2NC(=O)N1CC(=O)N[C@@H](C)c1ccc(F)cc1F (stereo partly drawn) [Compound B244, N-[(1S)-1-(2,4-Difluorophenyl)ethyl]-2-(4-methyl-2-oxo-1,4-dihydroquinazolin-3-yl)acetamide] | 2.50 µM | 0.695 µM | 4.818 µM
C[C@H](NC(=O)CN1C(=O)Nc2ccccc2C1(C)C)c1ccc(F)cc1F [Compound B245] | 0.94 µM | 9.295 µM | 11.66 µM
C[C@H](NC(=O)CN1C(=O)Nc2ccccc2C12CCCCC2)c1ccc(F)cc1F [Compound B246] | 100.00 µM | 19.62 µM | 73.7 µM
C[C@H](NC(=O)CN1Cc2c(F)cccc2NC1=O)c1ccc(F)cc1F [Compound B248, N-[(1S)-1-(2,4-Difluorophenyl)ethyl]-2-(5-fluoro-2-oxo-1,4-dihydroquinazolin-3-yl)acetamide] | 0.05 µM | 0.062 µM | 0.2832 µM
C[C@H](NC(=O)CN1Cc2ccccc2NC1=O)c1ccc(F)cc1F [Compound B249, N-[(1S)-1-(2,4-difluorophenyl)ethyl]-2-(2-oxo-1,4-dihydroquinazolin-3-yl)acetamide] | 0.07 µM | 0.02766 µM | 0.6589 µM
C[C@@H](NC(=O)CN1Cc2c(ccc(F)c2F)NC1=O)c1ncc(C(N)=O)cc1O [Compound B250] | 81.49 µM | 36.83 µM | 60.47 µM
C[C@@H](NC(=O)CN1Cc2cc(CN(C)C)ccc2NC1=O)c1ncc(C#N)cc1F [Compound B251] | 8.81 µM | 100.00 µM | 100.00 µM
C[C@H](NC(=O)CN1Cc2cc(CN(C)C)ccc2NC1=O)c1ncc(C#N)cc1F [Compound B252] | 81.49 µM | 36.83 µM | 60.47 µM
CNC(=O)N1CC2(C1)c1cc(F)ccc1NC(=O)N2CC(=O)N[C@H](C)c1ncc(C#N)cc1F [Compound B253] | 100.00 µM | 86.41 µM | 100.00 µM

The next lines start with the values.

Porcine Atria IC25 (Porcine Atria myofibrils) | Rabbit Psoas IC25 [1] | Porcine Ventricle IC25 [2] | SMILES
100.00 µM | 100.00 µM | 100.00 µM | CNC(=O)N1CC2(C1)c1cc(F)ccc1NC(=O)N2CC(=O)N[C@@H](C)c1ncc(C#N)cc1F [Compound B254]
100.00 µM | 100.00 µM | 100.00 µM | CC(=O)N1CC2(C1)c1cc(F)ccc1NC(=O)N2CC(=O)N[C@H](C)c1ncc(C#N)cc1F [Compound B255]
75.74 µM | 39.41 µM | 46.27 µM | CC(=O)N1CC2(C1)c1cc(F)ccc1NC(=O)N2CC(=O)N[C@@H](C)c1ncc(C#N)cc1F [Compound B256]
0.52 µM | 100.00 µM | 0.89 µM | C[C@@H](NC(=O)CN1Cc2c(ccc(F)c2F)NC1=O)c1ncc(-n2ncnn2)cc1F [Compound B264]
1.88 µM | 100.00 µM | 5.36 µM | C[C@H](NC(=O)CN1Cc2c(ccc(F)c2F)NC1=O)c1ncc(-n2ncnn2)cc1F [Compound B265]
0.05 µM | 0.95 µM | 1.38 µM | C[C@@H](NC(=O)C(C)(C)N1Cc2c(ccc(F)c2F)NC1=O)c1ncc(C#N)cc1F [Compound B266]
0.18 µM | 18.40 µM | 3.96 µM | C[C@H](NC(=O)C(C)(C)N1Cc2c(ccc(F)c2F)NC1=O)c1ncc(C#N)cc1F [Compound B267]
0.11 µM | 6.91 µM | 3.06 µM | C[C@@H](NC(=O)C1(N2Cc3c(ccc(F)c3F)NC2=O)CC1)c1ncc(C#N)cc1F [Compound B268]
1.18 µM | 100.00 µM | 100.00 µM | C[C@@H](NC(=O)CN1Cc2c(ccc(F)c2F)NC1=O)c1cc2cccnc2cn1 [Compound B270]
100.00 µM | 100.00 µM | 55.13 µM | C[C@H](NC(=O)CN1Cc2c(ccc(F)c2F)NC1=O)c1cc2cccnc2cn1 [Compound B271]
0.05 µM | 0.74 µM | 0.75 µM | C[C@@H](NC(=O)[C@H](C)N1Cc2c(ccc(F)c2F)NC1=O)c1ncc(C#N)cc1F [Compound B272]
1.96 µM | 1.57 µM | 22.58 µM | C[C@H](C(=O)N[C@H](C)c1ncc(C#N)cc1F)N1Cc2c(ccc(F)c2F)NC1=O [Compound B273]
1.10 µM | 100.00 µM | 95.97 µM | C[C@@H](NC(=O)CN1Cc2c(ccc(F)c2F)NC1=O)c1ccc2cnccc2n1 [Compound B274]
8.27 µM | 100.00 µM | 100.00 µM | C[C@H](NC(=O)CN1Cc2c(ccc(F)c2F)NC1=O)c1ccc2cnccc2n1 [Compound B275]
100.00 µM | 30.80 µM | 23.74 µM | C[C@@H](NC(=O)CN1Cc2cc3c(cc2NC1=O)OCCO3)c1ncc(C#N)cc1F [Compound B276]
77.49 µM | 100.00 µM | 73.20 µM | C[C@H](NC(=O)CN1Cc2cc3c(cc2NC1=O)OCCO3)c1ncc(C#N)cc1F [Compound B277]
0.03 µM | 0.03 µM | 0.09 µM | C[C@H](NC(=O)[C@H](C)N1Cc2c(ccc(F)c2F)NC1=O)c1ncc(C#N)cc1F [Compound B278]
0.11 µM | 0.57 µM | 0.70 µM | C[C@H](NC(=O)[C@@H](C)N1Cc2c(ccc(F)c2F)NC1=O)c1ncc(C#N)cc1F [Compound B279]
